From US10000471B2, “Pyrazole P38 map kinase inhibitors” (Respivert Limited, priority 2010, dated 2018)

Experiments:
[1] = system: IL-8 release in d-U937 cells; experiment: LPS-induced IL-8 release in d-U937 cells; type: cell-based, human; conditions: Homo sapiens, dU937
Method: (§1) LPS-Induced TNFα/IL-8 Release in d-U937 Cells
(§2) U937 cells, a human monocytic cell line, were differentiated to macrophage-type cells by incubation with phorbol myristate acetate (PMA; 100 ng/ml) for 48 to 72 hr. Cells were pre-incubated with final concentrations of test compound for 2 hr and were then stimulated with 0.1 μg/mL of LPS (from E. Coli: O111:B4, Sigma) for 4 hr. The supernatant was collected for determination of TNFα and IL-8 concentrations by sandwich ELISA (Duo-set, R&D systems). The inhibition of TNFα production was calculated as a percentage of that achieved by 10 μg/mL of BIRB796 at each concentration of test compound by comparison against vehicle control. The relative 50% effective concentration (REC50) was determined from the resultant concentration-response curve. The inhibition of IL-8 production was calculated at each concentration of test compound by comparison with vehicle control. The 50% inhibitory concentration (IC50) was determined from the resultant concentration-response curve.

[2] = system: Differentiated U937 cells; experiment: Cell viability MTT assay; type: cell-based, human; conditions: negative = apparent increase in viability; for MTT Assay (Viability) 4 h d-U937, percentage loss of cell viability: 4 hr in 5% FCS; for MTT Assay (Viability) 24 h d-U937, percentage loss of cell viability: 24 h in 10% FCS
Method: Differentiated U937 cells were pre-incubated with each test compound under two protocols: the first for 4 hr in 5% FCS and the second in 10% FCS for 24 h. The supernatant was replaced with 200 μL of new media and 10 μL of MTT stock solution (5 mg/mL) was added to each well. After incubation for 1 hr the media were removed, 200 μL of DMSO was added to each well and the plates were shaken lightly for 1 hr prior to reading the absorbance at 550 nm. The percentage loss of cell viability was calculated for each well relative to vehicle (0.5% DMSO) treatment. Consequently an apparent increase in cell viability for drug treatment relative to vehicle is tabulated as a negative percentage.

p38 MAPKγ (MAPK12) = biological target: T1, p38 MAPKγ (MAPK12) (Homo sapiens, UniProt P53778); experiment: Enzyme inhibition assay (FRET, Z-LYTE), p38 MAPKγ; type: biochemical; conditions: read-out: Enzyme Inhibition IC50 p38γ
T1 construct: purchased Invitrogen
T1 sequence (P53778 1-367): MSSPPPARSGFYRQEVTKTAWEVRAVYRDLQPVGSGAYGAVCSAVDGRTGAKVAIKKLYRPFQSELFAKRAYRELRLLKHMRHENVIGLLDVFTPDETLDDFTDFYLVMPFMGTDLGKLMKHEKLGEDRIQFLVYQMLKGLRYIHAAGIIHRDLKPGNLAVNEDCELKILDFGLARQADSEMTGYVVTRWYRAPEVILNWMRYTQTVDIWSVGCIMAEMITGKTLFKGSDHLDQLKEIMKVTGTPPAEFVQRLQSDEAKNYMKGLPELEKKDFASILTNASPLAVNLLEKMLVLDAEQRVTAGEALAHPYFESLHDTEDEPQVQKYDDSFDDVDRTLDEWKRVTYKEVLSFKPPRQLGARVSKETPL
Method: (§3) The enzyme inhibitory activities of compounds disclosed herein were determined by fluorescence resonance energy transfer (FRET) using synthetic peptides labelled with both donor and acceptor fluorophores (Z-LYTE, Invitrogen Ltd., Paisley, UK). Recombinant, phosphorylated p38 MAPKγ (MAPK12:Invitrogen) was diluted in HEPES buffer, mixed with the test compound at the desired final concentrations and incubated for 2 hr at RT. The FRET peptide (2 μM) and ATP (100 μM) were added to the enzyme/compound mixture and incubated for 1 hr. Development reagent (protease) was added for 1 hr prior to detection in a fluorescence microplate reader (Varioskan® Flash, ThermoFisher Scientific). The site-specific protease cleaves non-phosphorylated peptide only and eliminates the FRET signal. Phosphorylation levels of each reaction were calculated using the ratio of coumarin emission (donor) over fluorescein emission (acceptor) for which high ratios indicate high phosphorylation and low ratios indicate low phosphorylation levels. The percentage inhibition of each reaction was calculated relative to non-inhibited control and the 50% inhibitory concentration (IC50 value) then calculated from the concentration-response curve.

[3] = system: ICAM-1 induction in BEAS2B cells; experiment: Poly I:C-induced ICAM-1 induction in BEAS2B cells; type: cell-based, human; conditions: Homo sapiens, BEAS-2B, read-out: PolyIC/ICAM1 IC50 BEAS2B
Method: Poly I:C-Induced ICAM-1 Induction in BEAS2B Cells
Poly I:C (1 μg/mL) (Invivogene Ltd., San Diego, Calif.) was transfected into BEAS2B cells (human bronchial epithelial cells, ATCC) with Oligofectamine (Invitrogen, Carlsbad, Calif.). Cells were pre-incubated with final concentrations of test compounds for 2 hr and the level of ICAM1 expression on the cell surface was determined by cell-based ELISA. At a time point 18 hr after poly I:C transfection, cells were fixed with 4% formaldehyde in PBS and then endogenous peroxidase was quenched by the addition of 0.1% sodium azide and 1% hydrogen peroxide. Cells were washed with wash-buffer (0.1% Tween in PBS: PBS-Tween). and after blocking the wells with 5% milk in PBS-Tween for 1 hr, the cells were incubated with anti-human ICAM-1 antibody (Cell Signaling Technology, Danvers, Mass.) in 1% BSA PBS overnight at 4° C. The cells were washed with PBS-Tween and incubated with the secondary antibody (HRP-conjugated anti-rabbit IgG, Dako Ltd., Glostrup, Denmark). The ICAM-1 signal was detected by adding substrate and reading the absorbance at 450 nm against a reference wavelength of 655 nm using a spectrophotometer. The cells were then washed with PBS-Tween and total cell numbers in each well were determined by reading absorbance at 595 nm after Crystal Violet staining and elution by 1% SDS solution. The measured OD 450-655 readings were corrected for cell number by dividing with the OD595 reading in each well. The inhibition of ICAM-1 expression was calculated at each concentration of test compound by comparison with vehicle control. The 50% inhibitory concentration (IC50) was determined from the resultant concentration-response curve.

[4] = system: TNFα release in THP-1 cells; experiment: LPS-induced TNFα release in THP-1 cells; type: cell-based, human; conditions: Homo sapiens
Method: LPS-Induced TNFα Release in THP-1 Cells
THP-1 cells, a human monocytic cell line, were stimulated with 3 μg/mL of LPS (from E. Coli; 0111:B4, Sigma) for 4 hr and the supernatant collected for determination of the TNFα concentration by sandwich ELISA (Duo-set, R&D systems). The inhibition of TNFα production was calculated at each concentration by comparison with vehicle control. The 50% inhibitory concentration (IC50) was determined from the resultant concentration-response curve.

[5] = biological target: T2, p38 MAPKα isoform (MAPK14) (Homo sapiens, UniProt Q16539); experiment: Enzyme inhibition assay (FRET, Z-LYTE), p38 MAPKα via MAPKAP-K2 activation; type: biochemical; conditions: read-out: Enzyme Inhibition IC50 p38α
T2 construct: purchased Invitrogen
T2 sequence (Q16539 whole entry, canonical isoform): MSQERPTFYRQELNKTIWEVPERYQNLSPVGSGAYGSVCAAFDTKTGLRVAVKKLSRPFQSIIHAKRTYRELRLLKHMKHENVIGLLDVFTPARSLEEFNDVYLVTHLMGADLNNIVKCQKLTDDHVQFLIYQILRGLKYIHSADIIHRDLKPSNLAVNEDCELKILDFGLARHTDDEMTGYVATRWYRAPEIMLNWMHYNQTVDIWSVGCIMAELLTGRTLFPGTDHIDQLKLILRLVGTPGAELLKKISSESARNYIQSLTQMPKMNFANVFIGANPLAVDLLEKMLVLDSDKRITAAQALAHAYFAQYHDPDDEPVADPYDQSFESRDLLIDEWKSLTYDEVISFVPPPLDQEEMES
Method: as §3
For the p38 MAPKα isoform (MAPK14: Invitrogen), enzyme activity was evaluated indirectly by determining the level of activation/phosphorylation of the down-stream molecule, MAPKAP-K2. The p38 MAPKα protein was mixed with the test compound for 2 hr at RT. […] Development reagent was then added and the mixture incubated for 1 hr before detection by fluorescence completed the assay protocol.

[6] = system: TNFα release in d-U937 cells; experiment: LPS-induced TNFα release in d-U937 cells; type: cell-based, human; conditions: Homo sapiens, dU937, relative to 10 μg/mL BIRB796, read-out: LPS/TNFα REC50 d-U937
Method: as §1, §2

SMILES	IC50 [1] [nM]	MTT Assay (Viability) 4 h d-U937, percentage loss of cell viability [2] [%]	MTT Assay (Viability) 24 h d-U937, percentage loss of cell viability [2] [%]	IC50 (p38 MAPKγ (MAPK12)) [nM]	IC50 [3] [nM]	IC50 [4] [nM]	IC50 [5] [nM]	EC50 [6] [nM]
CNC(=O)Nc1cc(COc2ccc(NC(=O)Nc3cc(C(C)(C)C)nn3-c3ccc(C)cc3)c3cccnc23)ccn1 [Example 21, 1-(3-tert-Butyl-1-p-tolyl-1H-pyrazol-5-yl)-3-(8-((2-(3-methylureido)pyridin-4-yl)methoxy)quinolin-5-yl)urea]	12900	14.5	−12.0	> 17300	> 1730	1770	81.5	164
COCC(=O)Nc1cc(Oc2ccc(NC(=O)Nc3cc(C(C)(C)C)nn3-c3ccc(C)cc3)c(Cl)c2Cl)ccn1 [Example 36, N-(4-(4-(3-(3-tert-butyl-1-p-tolyl-1H-pyrazol-5-yl)ureido)-2,3-dichlorophenoxy)pyridin-2-yl)-2-methoxyacetamide]	3.4	−11.2	68.8	380	1.9	2.2	18.4	0.7
COCC(=O)Nc1cc(Oc2ccc(NC(=O)Nc3cc(C(C)(C)C)nn3-c3ccc(C)cc3)c3c2CCCC3)ccn1 [Example 5, N-(4-(4-(3-(3-tert-Butyl-1-p-tolyl-1H-pyrazol-5-yl)ureido)-5,6,7,8-tetrahydronaphthalen-1-yloxy)pyridin-2-yl)-2-methoxyacetamide]	50.6	−3.5	18.7	1360	21.9	1.4	18.7	0.4
CNC(=O)Nc1cc(Oc2ccc(NC(=O)Nc3cc(C(C)(C)C)nn3-c3ccc(C)cc3)c(Cl)c2Cl)ncn1 [Example 95, 1-(3-tert-butyl-1-p-tolyl-1H-pyrazol-5-yl)-3-(2,3-dichloro-4-(6-(3-methylureido)pyrimidin-4-yloxy)phenyl)urea]	0.2	−38.0	22.5	172	1.1	1.6	29.9	0.2
CC(C)(C)c1cc(NC(=O)Nc2ccc(Oc3ccnc(NC(=O)NC4CC4)c3)c(Cl)c2Cl)n(-c2ccc(CO)cc2)n1 [Example 55, 1-(4-(4-(3-(3-tert-butyl-1-(4-hydroxymethylphenyl)-1H-pyrazol-5-yl)ureido)-2,3-dichlorophenoxy)pyridin-2-yl)-3-cyclopropylurea]	3.1	−15.0	49.2	200	1.7	4.8	50.1	1
CNCC(=O)Nc1cc(Oc2ccc(NC(=O)Nc3cc(C(C)(C)C)nn3-c3ccc(CO)cc3)c(Cl)c2Cl)ccn1 [Example 8, N-(4-(4-(3-(3-tert-Butyl-1-(4-(hydroxymethyl)phenyl)-1H-pyrazol-5-yl)ureido)-2,3-dichlorophenoxy)pyridin-2-yl)-2-(methylamino)acetamide]	4.7	−7.0	85.6	17.2	2.4	0.5	7.6	0.9
COCC(=O)Nc1cc(Oc2ccc(NC(=O)Nc3cc(C(C)(C)C)nn3-c3ccc(C)cc3)c(C(F)(F)F)c2)ccn1 [Example 3, N-(4-(4-(3-(3-tert-Butyl-1-p-tolyl-1H-pyrazol-5-yl)ureido)-3-(trifluoromethyl)phenoxy)pyridin-2-yl)-2-methoxyacetamide]	41.2	3.4	22.9	175	24.4	1	5.1	1.1
CNCC(=O)Nc1cc(Oc2ccc(NC(=O)Nc3cc(C(C)(C)C)nn3-c3ccc(OC)cc3)c(Cl)c2Cl)ccn1 [Example 42, N-(4-(4-(3-(3-tert-butyl-1-(4-methoxyphenyl)-1H-pyrazol-5-yl)ureido)-2,3-dichlorophenoxy)pyridin-2-yl)-2-(methylamino)acetamide]	1.1	−4.4	67.9	28	3.1	0.7	14.6	1.3
COCC(=O)Nc1nccc(Oc2ccc(NC(=O)Nc3cc(C(C)(C)C)nn3-c3ccc(OC)cc3)c(Cl)c2Cl)n1 [Example 23, N-(4-(4-(3-(3-tert-Butyl-1-(4-methoxyphenyl)-1H-pyrazol-5-yl)ureido)-2,3-dichlorophenoxy)pyrimidin-2-yl)-2-methoxyacetamide]	11.9	−37.1	−24.5	47.9	2	2.2	15.7	0.3
